Measured values taken from patent publication US20260232767A1, “INTERLEUKIN-23 RECEPTOR ANTAGONIST PEPTIDES FOR USE IN THE TREATMENT OF PSORIASIS” (Janssen Pharmaceutica NV, priority 2023, published 2026).

System: subjects with moderate-to-severe plaque psoriasis
Assay: Hematology and chemistry laboratory values by CTCAE grade
Format: in vivo, human
Conditions: through Week 56
Excerpt: The proportion of participants who discontinued study intervention due to one or more AEs was low (n=4). All events were singular in nature with no apparent dose-dependent increase (Table 48 and Table 52). The number of participants with abnormal hematology and chemistry laboratory values with CTCAE toxicity grade≥3 were low through the end of the study (Table 43 through Table 46). There was no apparent dose-dependent increase in laboratory abnormality occurrences.

CC(=O)NCCCC[C@@H]1NC(=O)[C@H](Cc2c[nH]c3c(C)cccc23)NC(=O)[C@H]([C@@H](C)O)NC(=O)[C@H](CC(N)=O)NC(=O)[C@@H](NC(C)=O)C(C)(C)SSC(C)(C)[C@@H](C(=O)N[C@@H](Cc2ccc(OCCN)cc2)C(=O)N[C@@H](Cc2ccc3ccccc3c2)C(=O)NC2(C(=O)N[C@@H](CCC(=O)O)C(=O)N[C@@H](CC(N)=O)C(=O)N[C@@H](Cc3cccnc3)C(=O)N(C)CC(N)=O)CCOCC2)NC1=O [IL-23 receptor antagonist peptide, Ac-[Pen]*-N-T-[W(7-Me)]-[Lys(Ac)]-[Pen]*-Phe[4-(2-aminoethoxy)]-[2-Nal]-[THP]-E-N-[3-Pal]-Sarc-NH2 (*[Pen]-[Pen]* formdisulfidebond)]
9: Aspartate Aminotransferase (increased): Subjects with Grade 1 (100 mg QD)
10: Aspartate Aminotransferase (increased): Subjects with postbaseline maximum toxicity grade >0 (100 mg QD)
0: Creatinine (increased): Subjects with Grade 3 (100 mg BID) | Creatinine (increased): Subjects with Grade 4 (100 mg BID) | Gamma Glutamyl Transferase (increased): Subjects with Grade 2 (100 mg BID) | Gamma Glutamyl Transferase (increased): Subjects with Grade 3 (100 mg BID) | Gamma Glutamyl Transferase (increased): Subjects with Grade 4 (100 mg BID) | Glucose (decreased): Subjects with Grade 2 (100 mg BID) | Glucose (decreased): Subjects with Grade 3 (100 mg BID) | Glucose (decreased): Subjects with Grade 4 (100 mg BID) | Hemoglobin (g/L) (decreased): subjects with Grade 2 (100 mg BID) | Hemoglobin (g/L) (decreased): subjects with Grade 3 (100 mg BID) | Hemoglobin (g/L) (decreased): subjects with Grade 4 (100 mg BID) | Hemoglobin (g/L) (increased): subjects with Grade 2 (100 mg BID) | Hemoglobin (g/L) (increased): subjects with Grade 3 (100 mg BID) | Hemoglobin (g/L) (increased): subjects with Grade 4 (100 mg BID) | Lymphocytes (×10^9/L) (decreased): subjects with Grade 2 (100 mg BID) | Lymphocytes (×10^9/L) (decreased): subjects with Grade 3 (100 mg BID) | Lymphocytes (×10^9/L) (decreased): subjects with Grade 4 (100 mg BID) | Lymphocytes (×10^9/L) (increased): subjects with Grade 1 (100 mg BID) | Lymphocytes (×10^9/L) (increased): subjects with Grade 2 (100 mg BID) | Lymphocytes (×10^9/L) (increased): subjects with Grade 3 (100 mg BID) | Lymphocytes (×10^9/L) (increased): subjects with Grade 4 (100 mg BID) | Lymphocytes (×10^9/L) (increased): subjects with postbaseline maximum toxicity grade >0 (100 mg BID) | Magnesium (decreased): Subjects with Grade 1 (100 mg BID) | Magnesium (decreased): Subjects with Grade 2 (100 mg BID) | Magnesium (decreased): Subjects with Grade 3 (100 mg BID) | Magnesium (decreased): Subjects with Grade 4 (100 mg BID) | Magnesium (decreased): Subjects with postbaseline maximum toxicity grade >0 (100 mg BID) | Magnesium (increased): Subjects with Grade 2 (100 mg BID) | Magnesium (increased): Subjects with Grade 3 (100 mg BID) | Magnesium (increased): Subjects with Grade 4 (100 mg BID) | Neutrophils (×10^9/L) (decreased): subjects with Grade 3 (100 mg BID) | Neutrophils (×10^9/L) (decreased): subjects with Grade 4 (100 mg BID) | Platelets (×10^9/L) (decreased): subjects with Grade 2 (100 mg BID) | Platelets (×10^9/L) (decreased): subjects with Grade 3 (100 mg BID) | Platelets (×10^9/L) (decreased): subjects with Grade 4 (100 mg BID) | Potassium (decreased): Subjects with Grade 1 (100 mg BID) | Potassium (decreased): Subjects with Grade 2 (100 mg BID) | Potassium (decreased): Subjects with Grade 3 (100 mg BID) | Potassium (decreased): Subjects with Grade 4 (100 mg BID) | Potassium (decreased): Subjects with postbaseline maximum toxicity grade >0 (100 mg BID) | Potassium (increased): Subjects with Grade 2 (100 mg BID) | Potassium (increased): Subjects with Grade 3 (100 mg BID) | Potassium (increased): Subjects with Grade 4 (100 mg BID) | Sodium (decreased): Subjects with Grade 1 (100 mg BID) | Sodium (decreased): Subjects with Grade 2 (100 mg BID) | Sodium (decreased): Subjects with Grade 3 (100 mg BID) | Sodium (decreased): Subjects with Grade 4 (100 mg BID) | Sodium (decreased): Subjects with postbaseline maximum toxicity grade >0 (100 mg BID) | Sodium (increased): Subjects with Grade 2 (100 mg BID) | Sodium (increased): Subjects with Grade 3 (100 mg BID) | Sodium (increased): Subjects with Grade 4 (100 mg BID) | Total Bilirubin (increased): Subjects with Grade 2 (100 mg BID) | Total Bilirubin (increased): Subjects with Grade 3 (100 mg BID) | Total Bilirubin (increased): Subjects with Grade 4 (100 mg BID) | Triglycerides (increased): Subjects with Grade 4 (100 mg BID) | WBC (×10^9/L) (decreased): subjects with Grade 2 (100 mg BID) | WBC (×10^9/L) (decreased): subjects with Grade 3 (100 mg BID) | WBC (×10^9/L) (decreased): subjects with Grade 4 (100 mg BID) | WBC (×10^9/L) (increased): subjects with Grade 1 (100 mg BID) | WBC (×10^9/L) (increased): subjects with Grade 2 (100 mg BID) | WBC (×10^9/L) (increased): subjects with Grade 3 (100 mg BID) | WBC (×10^9/L) (increased): subjects with Grade 4 (100 mg BID) | WBC (×10^9/L) (increased): subjects with postbaseline maximum toxicity grade >0 (100 mg BID) | Alanine Aminotransferase (increased): Subjects with Grade 3 (100 mg QD) | Alanine Aminotransferase (increased): Subjects with Grade 4 (100 mg QD) | Albumin (decreased): Subjects with Grade 1 (100 mg QD) | Albumin (decreased): Subjects with Grade 2 (100 mg QD) | Albumin (decreased): Subjects with Grade 3 (100 mg QD) | Albumin (decreased): Subjects with Grade 4 (100 mg QD) | Albumin (decreased): Subjects with postbaseline maximum toxicity grade >0 (100 mg QD) | Alkaline Phosphatase (increased): Subjects with Grade 2 (100 mg QD) | Alkaline Phosphatase (increased): Subjects with Grade 3 (100 mg QD) | Alkaline Phosphatase (increased): Subjects with Grade 4 (100 mg QD) | Aspartate Aminotransferase (increased): Subjects with Grade 3 (100 mg QD) | Aspartate Aminotransferase (increased): Subjects with Grade 4 (100 mg QD) | Calcium corrected (decreased): Subjects with Grade 2 (100 mg QD) | Calcium corrected (decreased): Subjects with Grade 3 (100 mg QD) | Calcium corrected (decreased): Subjects with Grade 4 (100 mg QD) | Calcium corrected (increased): Subjects with Grade 2 (100 mg QD) | Calcium corrected (increased): Subjects with Grade 3 (100 mg QD) | Calcium corrected (increased): Subjects with Grade 4 (100 mg QD) | Cholesterol (increased): Subjects with Grade 1 (100 mg QD) | Cholesterol (increased): Subjects with Grade 3 (100 mg QD) | Cholesterol (increased): Subjects with Grade 4 (100 mg QD) | Creatine Kinase (increased): Subjects with Grade 2 (100 mg QD) | Creatine Kinase (increased): Subjects with Grade 3 (100 mg QD) | Creatinine (increased): Subjects with Grade 2 (100 mg QD) | Creatinine (increased): Subjects with Grade 3 (100 mg QD) | Creatinine (increased): Subjects with Grade 4 (100 mg QD) | Gamma Glutamyl Transferase (increased): Subjects with Grade 2 (100 mg QD) | Gamma Glutamyl Transferase (increased): Subjects with Grade 3 (100 mg QD) | Gamma Glutamyl Transferase (increased): Subjects with Grade 4 (100 mg QD) | Glucose (decreased): Subjects with Grade 3 (100 mg QD) | Glucose (decreased): Subjects with Grade 4 (100 mg QD) | Hemoglobin (g/L) (decreased): subjects with Grade 2 (100 mg QD) | Hemoglobin (g/L) (decreased): subjects with Grade 3 (100 mg QD) | Hemoglobin (g/L) (decreased): subjects with Grade 4 (100 mg QD) | Hemoglobin (g/L) (increased): subjects with Grade 1 (100 mg QD) | Hemoglobin (g/L) (increased): subjects with Grade 2 (100 mg QD) | Hemoglobin (g/L) (increased): subjects with Grade 3 (100 mg QD) | Hemoglobin (g/L) (increased): subjects with Grade 4 (100 mg QD) | Hemoglobin (g/L) (increased): subjects with postbaseline maximum toxicity grade >0 (100 mg QD) | Lymphocytes (×10^9/L) (decreased): subjects with Grade 3 (100 mg QD) | Lymphocytes (×10^9/L) (decreased): subjects with Grade 4 (100 mg QD) | Lymphocytes (×10^9/L) (increased): subjects with Grade 1 (100 mg QD) | Lymphocytes (×10^9/L) (increased): subjects with Grade 3 (100 mg QD) | Lymphocytes (×10^9/L) (increased): subjects with Grade 4 (100 mg QD) | Magnesium (decreased): Subjects with Grade 2 (100 mg QD) | Magnesium (decreased): Subjects with Grade 3 (100 mg QD) | Magnesium (decreased): Subjects with Grade 4 (100 mg QD) | Magnesium (increased): Subjects with Grade 2 (100 mg QD) | Magnesium (increased): Subjects with Grade 3 (100 mg QD) | Magnesium (increased): Subjects with Grade 4 (100 mg QD) | Neutrophils (×10^9/L) (decreased): subjects with Grade 3 (100 mg QD) | Neutrophils (×10^9/L) (decreased): subjects with Grade 4 (100 mg QD) | Platelets (×10^9/L) (decreased): subjects with Grade 2 (100 mg QD) | Platelets (×10^9/L) (decreased): subjects with Grade 3 (100 mg QD) | Platelets (×10^9/L) (decreased): subjects with Grade 4 (100 mg QD) | Potassium (decreased): Subjects with Grade 1 (100 mg QD) | Potassium (decreased): Subjects with Grade 3 (100 mg QD) | Potassium (decreased): Subjects with Grade 4 (100 mg QD) | Potassium (increased): Subjects with Grade 1 (100 mg QD) | Potassium (increased): Subjects with Grade 3 (100 mg QD) | Potassium (increased): Subjects with Grade 4 (100 mg QD) | Sodium (decreased): Subjects with Grade 1 (100 mg QD) | Sodium (decreased): Subjects with Grade 2 (100 mg QD) | Sodium (decreased): Subjects with Grade 3 (100 mg QD) | Sodium (decreased): Subjects with Grade 4 (100 mg QD) | Sodium (decreased): Subjects with postbaseline maximum toxicity grade >0 (100 mg QD) | Sodium (increased): Subjects with Grade 2 (100 mg QD) | Sodium (increased): Subjects with Grade 3 (100 mg QD) | Sodium (increased): Subjects with Grade 4 (100 mg QD) | Total Bilirubin (increased): Subjects with Grade 2 (100 mg QD) | Total Bilirubin (increased): Subjects with Grade 3 (100 mg QD) | Total Bilirubin (increased): Subjects with Grade 4 (100 mg QD) | Triglycerides (increased): Subjects with Grade 3 (100 mg QD) | Triglycerides (increased): Subjects with Grade 4 (100 mg QD) | WBC (×10^9/L) (decreased): subjects with Grade 3 (100 mg QD) | WBC (×10^9/L) (decreased): subjects with Grade 4 (100 mg QD) | WBC (×10^9/L) (increased): subjects with Grade 1 (100 mg QD)
7: Total Bilirubin (increased): Subjects with Grade 1 (100 mg QD) | Total Bilirubin (increased): Subjects with postbaseline maximum toxicity grade >0 (100 mg QD)
12: Alanine Aminotransferase (increased): Subjects with Grade 1 (100 mg QD)
5: Potassium (increased): Subjects with Grade 1 (100 mg BID) | Potassium (increased): Subjects with postbaseline maximum toxicity grade >0 (100 mg BID) | Gamma Glutamyl Transferase (increased): Subjects with Grade 1 (100 mg QD) | Gamma Glutamyl Transferase (increased): Subjects with postbaseline maximum toxicity grade >0 (100 mg QD) | Triglycerides (increased): Subjects with postbaseline maximum toxicity grade >0 (100 mg QD) | WBC (×10^9/L) (decreased): subjects with postbaseline maximum toxicity grade >0 (100 mg QD)
